# Source: patent US8455688B2, “HDAC inhibitors” (Lixte Biotechnology, Inc., priority 2007, dated 2013)
# Tested on: cell line U-87
# Experiment: Activity against the cell line U-87
# Format: cell-based, human
# Details: potency on an equimolar basis
row,Compound,activity against the cell line U-87
1,"O=C(CCCCCCNC(=O)c1ccccc1S)Nc1ccccc1 [Compound 212, 2-Mercapto-N-(6-phenylcarbamoyl-hexyl)benzamide]",most potent on an equimolar basis
2,O=C(CCCCCCCNC(=O)c1ccccc1S)Nc1ccccc1 [Compound 213],most potent on an equimolar basis
